Assay: Test of solubility property
Conditions: for HDDA (g/100 g): largest weight dissolved in 100 g of 1,6-hexanediol diacrylate (HDDA) at 20° C.; for Acetone (g/100 g): largest weight dissolved in 100 g of acetone at 20° C.

Compound | HDDA (g/100 g) | Acetone (g/100 g) | solubility (in the UV curing ink formulation, about 10% of butanone solvent required to dissolve completely)
CCC(Cc1ccccc1)(C(=O)c1ccc2c(c1)C(C)(C)c1cc(N3CCOCC3)ccc1-2)N(C)C (stereo not shown) [Compound 38, 2-benzyl-2-dimethylamino-9,9-dimethyl-1-(7-morpholinofluorenyl)butanone] | >15 | >30 | –
CCC(Cc1ccccc1)(C(=O)c1ccc2c(c1)C(C)(C)c1cc(N(CCO)CCO)ccc1-2)N(C)C (stereo not shown) [Compound 45] | >15 | >30 | –
CCC(Cc1ccccc1)(C(=O)c1ccc(N2CCOCC2)cc1)N(C)C (stereo not shown) [Irgacure 369, 2-benzyl-2-dimethylamino-1-(4-morpholinophenyl)butanone, reference compound] | 5 | 17 | relatively poor
CCCCN(CCCC)c1ccc2c(c1)C(C)(C)c1cc(C(=O)C(CC)(Cc3ccccc3)N(C)C)ccc1-2 (stereo not shown) [Compound 42] | >15 | >30 | –
CC(C)(C(=O)c1ccc2c(c1)Cc1cc(C(=O)C(C)(C)N3CCCCC3)ccc1-2)N1CCCCC1 [Compound 24] | >15 | >30 | –
CCC(Cc1ccc(C)cc1)(C(=O)c1ccc(N2CCOCC2)cc1)N(C)C (stereo not shown) [Irgacure 379, 2-(4-methylbenzyl)-2-dimethylamino-1-(4-morpholinophenyl)butanone, reference compound] | 11 | 24 | –
C=CCC1(CC=C)c2ccccc2-c2ccc(C(=O)C(CC)(Cc3ccccc3)N(C)C)cc21 (stereo not shown) [Compound 34] | >15 | >30 | –
C=CCC1(CC=C)c2cc(OC)ccc2-c2ccc(C(=O)C(C)(C)N3CCOCC3)cc21 [Compound 4] | >15 | >30 | –
CCCCC1(CCCC)c2ccccc2-c2ccc(C(=O)C(C)(C)N3CCOCC3)cc21 [Compound 5] | >15 | >30 | –
C=CCC(CC)(C(=O)c1ccc2c(c1)C(C)(C)c1cc(N3CCCCC3)ccc1-2)N(C)C (stereo not shown) [Compound 39, 2-allyl-2-dimethylamino-9,9-dimethyl-2-(7-piperidinylfluorenyl)butanone] | >15 | >30 | –
CCCCC1(CCCC)c2cc(C(=O)C(CC)(Cc3ccccc3)N(C)C)ccc2-c2ccc(N3CCOCC3)cc21 (stereo not shown) [Compound 14] | >15 | >30 | –
CCCCC1(CCCC)c2cc(C(=O)c3ccccc3)ccc2-c2ccc(C(=O)C(CC)(Cc3ccccc3)N(C)C)cc21 (stereo not shown) [Compound 41, 2-benzyl-2-dimethylamino-9,9-dibutyl-1-(7-benzoyl)butanone] | >15 | >30 | –
CCCC1(CCC)c2cc(C(=O)C(CC)(Cc3ccccc3)N(C)C)ccc2-c2ccc(N3CCCCC3)cc21 (stereo not shown) [Compound 43] | >15 | >30 | –
CCCCC1(CCCC)c2cc(C(=O)c3ccccc3)ccc2-c2ccc(C(=O)C(C)(C)N3CCOCC3)cc21 [Compound 9] | >15 | >30 | –
CCCCC1(CCCC)c2ccccc2-c2ccc(C(=O)C(CC)(Cc3ccccc3)N(C)C)cc21 (stereo not shown) [Compound 40, 2-benzyl-2-dimethylamino-9,9-dibutylfluorene-1-butanone] | >15 | >30 | –
